The source of these data is patent US10647675B2 (priority 2015, dated 2020).

The subject of assay [1] is Trichophyton rubrum KD-1130. Description: Antifungal activity evaluation test: minimum inhibitory concentration (MIC), broth dilution by reference to CLSI M38-A2. It counts as cell-based. As to conditions: KD1130, read-out: MIC (T. rubrum). As to the method: (§1) The minimum inhibitory concentration (MIC) for Trichophyton mentagrophytes and Trichophyton rubrum was measured by the following procedure by reference to Clinical and Laboratory standards Institute (CLSI) guidelines M38-A2. Reference document for the measurement method: National Committee for a Clinical Laboratory Standards. Reference method for broth dilution antifungal susceptibility testing of filamentous fungi. Approved standard Second edition M38-A2. Wayne, Pa.: National Committee for a Clinical Laboratory Standards, 2008. • Test compound solution: A test compound was dissolved in dimethyl sulfoxide (DMSO) at a concentration of 2.5 mg/mL to give a stock solution. The stock solution was appropriately diluted with DMSO to prepare a 2-fold dilution series. As control compounds, terbinafine and amorolfine were used. • Test strains: Trichophyton mentagrophytes SM-110 and Trichophyton rubrum KD-1130 were used. • Preparation of fungal culture to be inoculated: The above-mentioned test strain was suspended in 0.05% Tween 80-containing saline, and the fungi of the genus Trichophyton were prepared to a fungal concentration of 1×10^6 cells/mL by using a hemocytometer. Then, using MOPS-buffered RPMI 1640 medium (pH 7.0) as a test medium, a fungal culture of the fungi of the genus Trichophyton was diluted 250-fold (4×10^3 cells/mL) to give a fungal culture for inoculation. • MIC measurement of genus Trichophyton fungi: MOPS-buffered RPMI 1640 medium (pH 7.0) was dispensed by 100 μL to given wells of a 96 well U-bottom microplate. Then, the test compound solution (2 μL) was added, the mixture was sufficiently stirred by a plate mixer. The fungal culture (100 μL) was inoculated and the mixture was cultured at 35° C. for 4 days (final fungal concentration: 2×10^3 cells/mL). After the culture, the minimum drug concentration of a well in which a growth inhibitory action of not less than 80% was visually observed as compared to a growth control was taken as a minimum inhibitory concentration (MIC: μg/mL).
(§2) The abbreviations in the Tables mean the following fungi and compounds. • T. menta.: Trichophyton mentagrophytes • T. rubrum: Trichophyton rubrum • TBF: terbinafine • AMF: amorolfine

The test system of assay [2] is Trichophyton mentagrophytes SM-110. The description is as above. As to conditions: SM110, read-out: MIC (T. menta.). It counts as cell-based. As for the experimental part: as §1, §2

SMILES strings stand for the structures. ≈ marks a conversion by molar mass, not a printed value.

`COc1ncccc1-c1cccnc1Oc1ccc(C(F)(F)F)nc1` [I-26, 2-methoxy-2′-{[6-(trifluoromethyl)pyridin-3-yl]oxy}-3,3′-bipyridine]: the MIC in assay [1] and in assay [2] was ≤ 0.1 mg/L throughout.
Take `COc1ccncc1-c1cccnc1Oc1ccc2c(c1)CCCC2` [I-267, 4′-methoxy-[(5,6,7,8-tetrahydronaphthalen-2-yl)oxy]-3,3′-bipyridine]: the MIC in assay [1] and in assay [2] was ≤ 0.1 mg/L throughout.
Take `CC(F)(F)c1ccc(Oc2ncccc2-c2nccc3ccccc23)cn1` [I-112, 1-(2-{[6-(1,1-difluoroethyl)pyridin-3-yl]oxy}-3-yl)isoquinoline]: the MIC in assay [1] and in assay [2] was 0.2 to 0.78 mg/L (≈ 0.55 to 2.15 µM) in each case.
On to `CCc1ccccc1-c1cccnc1Oc1ccc(C(F)(F)F)nc1` [I-16, 3-(2-ethylphenyl)-2-{[6-(trifluoromethyl)pyridin-3-yl]oxy}pyridine], for which the MIC in assay [1] and in assay [2] was ≤ 0.1 mg/L each time.
Consider `CCc1ccc(Oc2ncccc2-c2cncc(Cl)c2OC)cc1` [I-284, 5′-chloro-2-(4-ethylphenoxy)-4′-methoxy-3,3′-bipyridine], for which the MIC in assay [1] and in assay [2] was ≤ 0.1 mg/L each time.
Consider `COc1ccccc1-c1cccnc1Oc1ccc(C(F)(F)CN2CCOCC2)nc1` [I-148, 4-[2,2-difluoro-2-(5-{[3-(2-methoxyphenyl)pyridin-2-yl]oxy}pyridin-2-yl)-ethyl]morpholine], for which the MIC in assay [1] and in assay [2] was 0.2 to 0.78 mg/L (≈ 0.468 to 1.82 µM) in each case.
On to `CCOCCc1ccc(Oc2ncccc2-c2cccc3ccnn23)cc1` [I-412, 7-{2-[4-(2-ethoxyethyl)phenoxy]pyridin-3-yl}pyrazolo[1,5-a]pyridine], for which the MIC in assay [1] and in assay [2] was ≤ 0.1 mg/L in each case.
With `COCC(F)(F)c1ccc(Oc2ncccc2-c2cccc3cccnc23)cn1` [I-169, 8-(2-{[6-(1,1-difluoro-2-methoxyethyl)pyridin-3-yl]oxy}pyridin-3-yl)quinoline], the MIC in assay [1] and in assay [2] was 0.2 to 0.78 mg/L (≈ 0.508 to 1.98 µM) each time.
Regarding `COc1ccc(F)cc1-c1cccnc1Oc1ccc(C(F)(F)F)nc1` [I-11, 3-(5-fluoro-2-methoxyphenyl)-2-{[6-(trifluoromethyl)pyridin-3-yl]oxy}pyridine], the minimal inhibitory concentration (MIC) in assay [1] and in assay [2] was ≤ 0.1 mg/L throughout.
Consider `COc1ccccc1-c1cccnc1Oc1ccc(Cl)cc1` [I-199, 2-(4-chlorophenoxy)-3-(2-methoxyphenyl)pyridine], for which the MIC in assay [1] and in assay [2] was ≤ 0.1 mg/L in each case.
Take `COC(=O)CCc1ccc(Oc2ncccc2-c2cnccc2OC)cc1` [I-279, methyl 3-(4-{[4′-methoxy-3,3′-bipyridin-2-yl]oxy}phenyl)propionate]: the minimum inhibitory concentration (MIC) in assay [1] and in assay [2] was 0.2 to 0.78 mg/L (≈ 0.549 to 2.14 µM) in each case.
For `COc1cc(F)ccc1-c1cccnc1Oc1cnc(C(F)(F)F)c(C)c1` [I-118, 5-{[3-(4-fluoro-2-methoxyphenyl)pyridin-2-yl]oxy}-3-methyl-2-(trifluoromethyl)pyridine], the MIC in assay [1] and in assay [2] was ≤ 0.1 mg/L each time.
With `COc1ccncc1-c1cccnc1Oc1ccc2c(c1)CCC2` [I-266, 2-[(2,3-dihydro-1H-inden-5-yl)oxy]-4′-methoxy-3,3′-bipyridine], the MIC in assay [1] and in assay [2] was ≤ 0.1 mg/L throughout.
Turning to `Cn1nc(-c2cccnc2Oc2ccc(C(F)(F)F)nc2)c2cccnc21` [I-47, 1-methyl-3-(2-{[6-(trifluoromethyl)pyridin-3-yl]oxy}pyridin-3-yl)-1H-pyrazolo[3,4-b]pryidine], the MIC in assay [1] and in assay [2] was 1.56 to 6.25 mg/L (≈ 4.2 to 16.8 µM) each time.
As for `CCOC(=O)c1ccc(Oc2ncccc2-c2cnccc2Cl)cc1` [I-414], the MIC in assay [1] and in assay [2] was ≤ 0.1 mg/L throughout.
On to `COc1ccccc1-c1cccnc1Oc1ccc2c(c1)CCC2` [I-345, 2-[(2,3-dihydro-1H-inden-5-yl)oxy]-3-(2-methoxyphenyl)pyridine], for which the MIC in assay [1] and in assay [2] was ≤ 0.1 mg/L in each case.
As for `Clc1ccc(Oc2nccnc2-c2cccc3ccccc23)cc1` [I-314, 2-(4-chlorophenoxy)-3-(naphthalen-1-yl)pyrazine], the MIC in assay [1] was ≤ 0.1 mg/L; in assay [2], 0.2 to 0.78 mg/L (≈ 0.601 to 2.34 µM).
In the same order, the values of `FC(F)(F)c1ccc(Oc2ncccc2-c2ccccc2OCC2CC2)cn1` [I-57, 3-[2-(cyclopropylmethoxy)phenyl]-2-{[6-(trifluoromethyl)pyridin-3-yl]oxy}pryidine] are 0.2 to 0.78 mg/L (≈ 0.518 to 2.02 µM) and 0.2 to 0.78 mg/L (≈ 0.518 to 2.02 µM).
For `COc1ccccc1-c1cccnc1Oc1cnc(OCc2ccccc2)nc1` [I-380, 2-(benzyloxy)-5-{[3-(2-methoxyphenyl)pyridin-2-yl]oxy}pyrimidine], in that order: ≤ 0.1 mg/L and ≤ 0.1 mg/L.
Turning to `FC(F)c1ccc(Oc2ncncc2-c2cccc3ccnn23)cc1` [I-358, 7-{4-[4-(difluoromethyl)phenoxy]pyrimidin-5-yl)pyrazolo[1,5-a]-pyridine], the MIC in assay [1] and in assay [2] was ≤ 0.1 mg/L throughout.
Take `CCOC(=O)COc1ncc(Oc2ncccc2-c2ccc(F)cc2OC)cn1` [I-196, ethyl 2-[(5-{[3-(4-fluoro-2-methoxyphenyl)pyridin-2-yl]oxy}-pyrimidin-2-yl)oxy]acetate]: the MIC in assay [1] and in assay [2] was 0.2 to 0.78 mg/L (≈ 0.501 to 1.95 µM) throughout.
`COc1ncccc1-c1cccnc1Oc1ccc(C(C)(F)F)cc1` [I-298]: the MIC in assay [1] and in assay [2] was ≤ 0.1 mg/L throughout.
As for `COC(=O)CCc1ccc(Oc2ncccc2-c2cccnc2OC)cc1` [I-409], the minimum inhibitory concentration (MIC) in assay [1] and in assay [2] was ≤ 0.1 mg/L each time.
Turning to `COCc1ccccc1-c1cccnc1Oc1ccc(C(F)(F)F)nc1` [I-60], the MIC in assay [1] and in assay [2] was 0.2 to 0.78 mg/L (≈ 0.555 to 2.16 µM) throughout.
In the case of `CCn1cc(CCc2ccc(Oc3ncccc3-c3cccnc3OC)cc2)cn1` [I-404, 2-{4-[2-(1-ethyl-1H-pyrazol-4-yl)ethyl]phenoxy}-2′-methoxy-3,3′-bipyridine], the MIC in assay [1] and in assay [2] was ≤ 0.1 mg/L each time.
`COc1ccccc1-c1cccnc1Oc1ccc(OC(F)F)nc1` [I-370, 2-{[6-(difluoromethoxy)pyridin-3-yl]oxy}-3-(2-methoxyphenyl)pyridine]: the MIC in assay [1] and in assay [2] was ≤ 0.1 mg/L in each case.
Turning to `CCOC(=O)CCc1ncc(Oc2ncccc2-c2ccc(F)cc2OC)cn1` [I-195, ethyl 3-(5-{[3-(4-fluoro-2-methoxyphenyl)pyridin-2-yl]oxy}-pyrimidin-2-yl)propionate], the MIC in assay [1] and in assay [2] was 0.2 to 0.78 mg/L (≈ 0.503 to 1.96 µM) each time.
For `COc1cc(F)c(F)cc1-c1cncnc1Oc1ccc(C(C)(F)F)nc1` [I-336, 4-{[6-(1,1-difluoroethyl)pyridin-3-yl]oxy}-5-(4,5-difluoro-2-methoxyphenyl)pyrimidine], the minimum inhibitory concentration (MIC) in assay [1] and in assay [2] was ≤ 0.1 mg/L each time.
Consider `FC(F)(F)c1ccc(Oc2ncccc2-c2ccnc3cccnc23)cc1` [I-226, 4-{2-[4-(trifluoromethyl)phenoxy]pyridin-3-yl}-1,5-naphthyridine], for which the MIC in assay [1] and in assay [2] was ≤ 0.1 mg/L each time.
For `FC(F)(F)c1ccc(Oc2ncccc2-c2cncc3nccn23)cc1` [I-231, 5-{2-[4-(trifluoromethyl)phenoxy]pyridin-3-yl}imidazo[1,2-a]pyrazine], the MIC in assay [1] and in assay [2] was 1.56 to 6.25 mg/L (≈ 4.38 to 17.5 µM) each time.
On to `Cc1ccncc1-c1cccnc1Oc1ccc(C(F)(F)CF)cc1` [I-306], for which the MIC in assay [1] and in assay [2] was ≤ 0.1 mg/L in each case.
As to `COc1cc(F)ccc1-c1cccnc1Oc1cnc(N(C)C)c(C)c1` [I-369], the MIC in assay [1] and in assay [2] was ≤ 0.1 mg/L in each case.
Regarding `COc1ccccc1-c1cncnc1Oc1ccc(C(F)(F)F)nc1` [I-310, 5-(2-methoxyphenyl)-4-{[6-(trifluoromethyl)pyridin-3-yl]oxy}pyrimidine], the MIC in assay [1] and in assay [2] was ≤ 0.1 mg/L each time.
Regarding `CCc1ccc(Oc2ncccc2-c2cccc3c2OCC3)cn1` [I-125], the results for the MIC in assay [1] and in assay [2] were 0.2 to 0.78 mg/L (≈ 0.628 to 2.45 µM) and ≤ 0.1 mg/L, respectively.
On to `COc1ncc(F)cc1-c1cccnc1Oc1ccc(C(F)(F)F)cc1` [I-209, 5-fluoro-2-methoxy-2′-[4-(trifluoromethyl)phenoxy]-3,3′-bipyridine], for which the MIC in assay [1] and in assay [2] was ≤ 0.1 mg/L throughout.
On to `COc1ccc(F)cc1-c1cccnc1Oc1ccc(C(C)(F)F)nc1` [I-83, 2-{[6-(1,1-difluoroethyl)pyridin-3-yl]oxy}-3-(5-fluoro-2-methoxyphenyl)pyridine], for which the MIC in assay [1] and in assay [2] was ≤ 0.1 mg/L throughout.
Turning to `Fc1cncc(-c2cccnc2Oc2ccc(C(F)(F)F)cc2)c1Cl` [I-207, 4′-chloro-5′-fluoro-2-[4-(trifluoromethyl)phenoxy]-3,3′-bipyridine], the MIC in assay [1] and in assay [2] was ≤ 0.1 mg/L in each case.
